Where two headings read alike, the source gives them in different places.
Tests used:
α-amylase [1] = target: T1, α-amylase (Sus scrofa, UniProt P00690); assay: α-Amylase inhibitory activity assay (Gal-G2-α-CNP substrate); type: biochemical; conditions: 37 °C, pH 6.8
T1 sequence (P00690 16-511): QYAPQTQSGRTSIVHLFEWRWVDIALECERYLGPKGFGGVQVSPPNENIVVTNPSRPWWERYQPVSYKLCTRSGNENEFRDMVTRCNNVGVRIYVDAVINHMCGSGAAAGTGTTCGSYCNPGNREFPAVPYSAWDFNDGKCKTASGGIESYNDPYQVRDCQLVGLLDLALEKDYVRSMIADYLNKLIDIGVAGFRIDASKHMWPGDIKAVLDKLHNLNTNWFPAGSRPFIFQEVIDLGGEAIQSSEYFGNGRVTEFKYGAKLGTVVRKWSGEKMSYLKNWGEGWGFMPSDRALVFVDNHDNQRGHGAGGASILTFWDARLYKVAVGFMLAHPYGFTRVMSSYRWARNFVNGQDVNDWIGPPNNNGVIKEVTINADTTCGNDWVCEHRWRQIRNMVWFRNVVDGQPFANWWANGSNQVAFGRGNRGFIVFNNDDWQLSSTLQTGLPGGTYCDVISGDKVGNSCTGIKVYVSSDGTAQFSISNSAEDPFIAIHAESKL
Method: The inhibitory activity detection process was slightly modified, with reference as the base method from the literature. […] After thorough mixing, the samples were pre-incubated at 37 °C for 10 min. Subsequently, 100 μL of 5 mmol/L Gal-G2-α-CNP substrate was added to each sample. Following a 3 min reaction period, the absorbance of the solutions at 405 nm was measured using a microplate reader. The inhibition rate (%) was calculated based on the absorbance readings according to Formula (1).(1) inhibition rate%=(1−(A1−A2)/(A3−A4))×100
In the formula, A1 represents the sample group; A2 represents the sample control group (where the enzyme was replaced with phosphate buffer); A3 represents the blank control group; and A4 represents the reagent blank control group (containing blank sample solution and phosphate buffer).
(§1) Using the enzyme inhibition rate as the y-axis and the inhibitor concentration as the x-axis, the IC50 value was calculated through linear regression fitting with GraphPad Prism software (5.0).

α-glucosidase [2] = target: T2, α-glucosidase (Saccharomyces cerevisiae, UniProt P53341); assay: α-Glucosidase inhibitory activity assay (pNPG substrate); type: biochemical; conditions: 37 °C
T2 sequence (P53341 whole entry): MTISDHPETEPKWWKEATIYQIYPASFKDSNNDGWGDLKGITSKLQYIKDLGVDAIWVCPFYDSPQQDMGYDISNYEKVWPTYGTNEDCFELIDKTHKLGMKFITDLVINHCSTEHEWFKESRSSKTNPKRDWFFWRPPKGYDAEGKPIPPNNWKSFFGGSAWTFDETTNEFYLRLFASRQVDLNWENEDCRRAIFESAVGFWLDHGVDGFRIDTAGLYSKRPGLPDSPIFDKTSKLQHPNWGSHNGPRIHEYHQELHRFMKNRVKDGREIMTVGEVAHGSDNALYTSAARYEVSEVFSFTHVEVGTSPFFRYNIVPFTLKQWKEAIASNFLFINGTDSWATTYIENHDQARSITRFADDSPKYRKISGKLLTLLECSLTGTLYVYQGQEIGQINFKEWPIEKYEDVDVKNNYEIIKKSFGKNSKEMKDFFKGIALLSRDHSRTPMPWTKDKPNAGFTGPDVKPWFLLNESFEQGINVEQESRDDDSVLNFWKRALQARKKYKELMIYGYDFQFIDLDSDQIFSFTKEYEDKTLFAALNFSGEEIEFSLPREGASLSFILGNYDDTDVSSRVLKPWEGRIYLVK
Method: The experimental groups were supplemented with different concentrations of porphyrin compounds, followed by the addition of 100 μL of 5 mmol/L pNPG. After thorough mixing, the samples were pre-incubated at 37 °C for 10 min. Subsequently, the reaction was terminated by adding 0.1 mol/L of sodium carbonate (Na2CO3) solution. Following a 3 min reaction period, the absorbance of the solutions at 405 nm was measured using a microplate reader. The inhibition rate (%) was subsequently calculated using Formula (1).
as §1

α-amylase [3] = target: T1, α-amylase; assay: Mode of α-AMY inhibition (reversibility, Lineweaver–Burk kinetics); type: biochemical; conditions: for type of inhibition of α-amylase: Lineweaver–Burk plots; for reversibility of inhibition of α-amylase: enzyme 100–400 U/L, substrate 5 mmol/L; for Kis: enzyme–substrate complex inhibition constant; for Ki: free enzyme inhibition constant
From the text: In the experiment, the concentration of the fixed substrate Gal-G2-α-CNP/pNPG solution was 5 mmol/L, and the concentrations of the two enzymes (100, 200, 300, 400 U/L) were used to determine the effect of different concentrations of porphyrins on enzyme activity. The concentration of the enzyme was 200 U/L, and the concentration of the substrate Gal-G2-α-CNP/pNPG solution (2.5, 5, 7.5, 10 mmol/L) was used to determine the effect of different concentrations of porphyrins on the enzyme-catalyzed substrate activity.
Upon identifying the type of inhibition, the kinetic equations vary for different inhibition types.
In the formula, v, Vmax, Km, Ki, and Kis represent the reaction rate, maximum reaction rate, Michaelis constant, and free enzyme inhibition constant, respectively, and the binding enzyme inhibition constant. [S] denotes the substrate concentration. [I] denotes the inhibitor concentration.

α-amylase [4] = target: T1, α-amylase; assay: In vitro stability study (temperature, pH), inhibition rate against α-amylase; type: physicochemical; conditions: water bath 30–100 °C, 20 min
Method: (§2) Samples of a certain mass concentration were subjected to a water bath at different temperatures (30, 40, 50, 60, 70, 80, 90, 100 °C) for 20 min and treated under different pH conditions (2.0, 3.0, 4.0, 5.0, 6.0, 7.0, 8.0, 9.0, and 10.0) for 20 min to determine the effect of temperature and pH on the stability of the two enzymes.

α-glucosidase [5] = target: T2, α-glucosidase; assay: In vitro stability study (temperature, pH), inhibition rate against α-glucosidase; type: physicochemical; conditions: water bath 30–100 °C, 20 min
Method: as §2

α-amylase [6] = target: T1, α-amylase; assay: Three-dimensional fluorescence spectroscopy of α-amylase complexes; conditions: 298 K; TAPP 2.5, THPP 10, TCPP 10, Fe–TCPP 12.5, Ni–TCPP 17.5, Cu–TCPP 10 μg/mL
HepG2 cells = assay: MTT cytotoxicity assay; type: cell-based, human; conditions: 24 h
Method: (§3) The cytotoxicity of six porphyrin compounds against human hepatocellular carcinoma HepG2 cells was evaluated using the MTT assay. HepG2 cells were seeded into 96-well plates at a density of 5000 cells per well and cultured for 24 h at 37 °C in a 5% CO2 incubator. Then, 100 µL of sample solutions at various concentrations (50, 100, and 200 µg/mL) was added to the experimental wells, with blank control wells and solvent control wells also included. The cells were further incubated for 24 h. After incubation, 10 µL of MTT solution (5 mg/mL) was added to each well, and the plates were incubated for another 4 h. Subsequently, 100 µL of Formazan solubilization solution was added to each well, followed by gentle mixing. The plates were returned to the incubator and maintained until complete dissolution of Formazan crystals was observed under a microscope. The absorbance at 570 nm was measured using a microplate reader (Meigu Molecular Instrument Company, Shanghai, China), and the survival rate of HepG2 cells was calculated.(12) Cell viability=As-Ab/Ac-Ab×100%
(§4) In the formula, As represents the absorbance of the sample well, Ac denotes the absorbance of the blank control well (without the drug), and Ab refers to the absorbance of the solvent control well (devoid of both cells and the drug).

MTT cytotoxicity assay = type: cell-based, human; conditions: human, HepG2 cells; for viability at 24 h: read-out: cell viability
Method: as §3, §4

Compound	IC50 α-amylase (α-amylase [1]) [µg/mL]	IC50 α-GLU (α-glucosidase [2]) [µg/mL]	Km (α-amylase [3]; C 25 μg/mL) [µg/mL]	Vmax (α-amylase [3]; C 25 μg/mL)	Km (α-amylase [3]; C 50 μg/mL) [µg/mL]	Vmax (α-amylase [3]; C 50 μg/mL)	Km (α-amylase [3]; C 100 μg/mL) [µg/mL]	Vmax (α-amylase [3]; C 100 μg/mL)	Km (α-amylase [3]; C 150 μg/mL) [µg/mL]	Vmax (α-amylase [3]; C 150 μg/mL)	Km (α-amylase [3]; C 200 μg/mL) [µg/mL]	Vmax (α-amylase [3]; C 200 μg/mL)	type of inhibition of α-amylase (α-amylase [3])	reversibility of inhibition of α-amylase (α-amylase [3])	Kis (α-amylase [3]) [µg/mL]	Ki (α-amylase [3]) [µg/mL]	thermal stability: inhibition rate against α-amylase (α-amylase [4])	thermal stability: inhibition rate against α-glucosidase (α-glucosidase [5])	Peak 1 Fluorescence Intensity (α-amylase [6])	Peak 2 Fluorescence Intensity (α-amylase [6])	further results
O=C(O)c1ccc(-c2c3nc(c(-c4ccc(C(=O)O)cc4)c4ccc([nH]4)c(-c4ccc(C(=O)O)cc4)c4nc(c(-c5ccc(C(=O)O)cc5)c5ccc2[nH]5)C=C4)C=C3)cc1.[Cu+2] [Cu–TCPP, copper (II) meso-tetra (4-carboxyphenyl)porphyrin]	245.04 ± 0.26	25.33 ± 0.55	2.8021 ± 0.0410	0.1101 ± 0.0016 ΔOD/min	3.1685 ± 0.0729	0.1050 ± 0.0024 ΔOD/min	3.5949 ± 0.0569	0.0923 ± 0.0015 ΔOD/min	3.9016 ± 0.1355	0.0860 ± 0.0031 ΔOD/min	4.2470 ± 0.0673	0.0785 ± 0.0012 ΔOD/min	mixed type	reversible inhibition	420.9420 ± 0.2189	135.8043 ± 0.1608	small fluctuations	remained relatively stable	313.1	16.48	cell viability (survival rate) (HepG2 cells; HepG2, 200 μg/mL): 43.13 ± 5.53%; cell viability (HepG2 cells; HepG2, 50–100 μg/mL): above 80%
Nc1ccc(-c2c3nc(c(-c4ccc(N)cc4)c4ccc([nH]4)c(-c4ccc(N)cc4)c4nc(c(-c5ccc(N)cc5)c5ccc2[nH]5)C=C4)C=C3)cc1 [TAPP]	–	–	–	–	–	–	–	–	–	–	–	–	mixed type	reversible inhibition	21.2847 ± 0.0677	–	–	–	317.2	7.013	Vmax (α-amylase [3]; C 2 μg/mL): 0.1670 ± 0.0030 ΔOD/min; Vmax (α-amylase [3]; C 4 μg/mL): 0.1562 ± 0.0039 ΔOD/min; Vmax (α-amylase [3]; C 6 μg/mL): 0.1425 ± 0.0032 ΔOD/min; Vmax (α-amylase [3]; C 8 μg/mL): 0.1328 ± 0.0034 ΔOD/min; Vmax (α-amylase [3]; C 10 μg/mL): 0.1243 ± 0.0028 ΔOD/min; viability at 24 h (MTT cytotoxicity assay; HepG2, 50–200 μg/mL): > 97%
O=C(O)c1ccc(-c2c3nc(c(-c4ccc(C(=O)O)cc4)c4ccc([nH]4)c(-c4ccc(C(=O)O)cc4)c4nc(c(-c5ccc(C(=O)O)cc5)c5ccc2[nH]5)C=C4)C=C3)cc1 [TCPP]	–	–	–	0.1046 ± 0.0025 ΔOD/min	–	0.0872 ± 0.0014 ΔOD/min	–	0.0709 ± 0.0018 ΔOD/min	–	0.0583 ± 0.0021 ΔOD/min	–	0.0496 ± 0.0007 ΔOD/min	mixed type	reversible inhibition	132.4382 ± 0.1403	–	small fluctuations	remained relatively stable	461.6	58.06	viability at 24 h, 200 µg/mL (MTT cytotoxicity assay; HepG2, 200 μg/mL, read-out: cell viability (survival rate)): 30.3 ± 3.45%; viability at 24 h (MTT cytotoxicity assay; HepG2, 50–100 μg/mL): > 80%
Oc1ccc(-c2c3nc(c(-c4ccc(O)cc4)c4ccc([nH]4)c(-c4ccc(O)cc4)c4nc(c(-c5ccc(O)cc5)c5ccc2[nH]5)C=C4)C=C3)cc1 [THPP]	–	–	–	–	–	0.0426 ± 0.0013 ΔOD/min	–	–	–	–	–	–	mixed type	reversible inhibition	23.1012 ± 0.1027	–	small fluctuations	remained relatively stable	297.5	32.69	Vmax (α-amylase [3]; C 20 μg/mL): 0.0740 ± 0.0028 ΔOD/min; Vmax (α-amylase [3]; C 30 μg/mL): 0.0580 ± 0.0010 ΔOD/min; Vmax (α-amylase [3]; C 40 μg/mL): 0.0491 ± 0.0012 ΔOD/min; Vmax (α-amylase [3]; C 60 μg/mL): 0.0376 ± 0.0012 ΔOD/min; cytotoxicity (in words) (HepG2 cells; HepG2, 50–200 μg/mL): certain cytotoxic effects
iron (III) meso-tetra (4-carboxyphenyl) porphyrin chloride [Fe–TCPP]	95.75 ± 0.62	23.93 ± 0.53	2.7329 ± 0.0882	0.1143 ± 0.0037 ΔOD/min	2.9384 ± 0.0447	0.0972 ± 0.0015 ΔOD/min	3.2079 ± 0.1016	0.0748 ± 0.0024 ΔOD/min	3.3360 ± 0.0508	0.0601 ± 0.0009 ΔOD/min	3.4920 ± 0.0491	0.0512 ± 0.0007 ΔOD/min	mixed type	reversible inhibition	117.2152 ± 0.1432	69.5865 ± 0.1284	small fluctuations	remained relatively stable	270.8	28.26	–
